Experiment [1] concerns Rattus norvegicus. The experiment can be described thus: Hepatoprotective activity in Sprague-Dawley rat assessed as reduction in ANIT-stimulated total bilirubin level at 30 mg/kg, ig administered for 8 days by biochemical analysis. The format is functional, organism-based.
In experiment [2] the target is T1, Peroxisome proliferator-activated receptor alpha (Homo sapiens) (UniProt Q07869).
T1 sequence (whole entry): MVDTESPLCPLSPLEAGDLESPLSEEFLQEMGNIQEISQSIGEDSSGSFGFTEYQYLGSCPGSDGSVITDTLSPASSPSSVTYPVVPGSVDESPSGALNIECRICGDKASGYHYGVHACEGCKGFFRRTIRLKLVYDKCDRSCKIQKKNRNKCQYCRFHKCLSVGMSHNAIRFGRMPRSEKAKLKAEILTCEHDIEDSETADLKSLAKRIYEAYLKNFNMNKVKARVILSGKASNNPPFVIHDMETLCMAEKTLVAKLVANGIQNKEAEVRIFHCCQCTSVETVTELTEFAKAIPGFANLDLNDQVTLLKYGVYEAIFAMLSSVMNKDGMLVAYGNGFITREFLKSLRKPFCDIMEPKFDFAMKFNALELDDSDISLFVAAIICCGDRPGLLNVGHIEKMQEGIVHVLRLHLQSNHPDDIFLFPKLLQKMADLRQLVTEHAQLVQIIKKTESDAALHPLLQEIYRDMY
The experiment can be described thus: Agonist activity at PPARalpha (unknown origin) incubated for 3 to 16 hrs by pathhunter nuclear hormone receptor assay relative to GW7647. Details: concentration or dose not given beside the values.

Experiment [3] deals with Rattus norvegicus. The experiment can be described thus: Hepatoprotective activity in Sprague-Dawley rat assessed as reduction in ANIT-stimulated inflammatory score at 30 mg/kg, ig administered for 8 days by hematoxylin and eosin staining based mopho-metric analysis. The format is functional, organism-based.
In experiment [4] the test system is Rattus norvegicus. The experiment can be described thus: Hepatoprotective activity in Sprague-Dawley rat assessed as reduction in ANIT-stimulated fibrosis area at 30 mg/kg, ig administered for 8 days by hematoxylin and eosin staining based mopho-metric analysis. The format is functional, organism-based.
The target in experiment [5] is T2, Peroxisome proliferator-activated receptor alpha (Homo sapiens, UniProt Q07869).
T2 sequence (Q07869 whole entry): T1 sequence (whole entry)
The experiment can be described thus: Agonist activity at PPARalpha (unknown origin) incubated for 3 to 16 hrs by pathhunter nuclear hormone receptor assay.

Experiment [6] addresses T3, Peroxisome proliferator-activated receptor delta (Homo sapiens) (UniProt Q03181).
T3 sequence (whole entry): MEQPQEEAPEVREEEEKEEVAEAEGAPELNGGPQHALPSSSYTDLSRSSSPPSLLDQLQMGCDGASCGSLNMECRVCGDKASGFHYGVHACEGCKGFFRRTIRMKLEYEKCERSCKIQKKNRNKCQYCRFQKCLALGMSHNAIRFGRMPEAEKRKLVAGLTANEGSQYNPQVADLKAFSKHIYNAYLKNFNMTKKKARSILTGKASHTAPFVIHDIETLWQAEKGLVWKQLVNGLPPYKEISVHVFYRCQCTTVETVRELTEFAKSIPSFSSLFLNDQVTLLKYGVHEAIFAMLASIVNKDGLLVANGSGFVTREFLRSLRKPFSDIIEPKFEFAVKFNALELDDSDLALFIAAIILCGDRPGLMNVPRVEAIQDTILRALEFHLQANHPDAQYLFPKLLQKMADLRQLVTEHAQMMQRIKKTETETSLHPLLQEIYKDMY
The experiment can be described thus: Agonist activity at PPARbeta (unknown origin) incubated for 3 to 16 hrs by pathhunter nuclear hormone receptor assay relative to L-165,041.

Experiment [7] has as its target T4, Peroxisome proliferator-activated receptor gamma (Homo sapiens) (UniProt P37231).
T4 sequence (whole entry): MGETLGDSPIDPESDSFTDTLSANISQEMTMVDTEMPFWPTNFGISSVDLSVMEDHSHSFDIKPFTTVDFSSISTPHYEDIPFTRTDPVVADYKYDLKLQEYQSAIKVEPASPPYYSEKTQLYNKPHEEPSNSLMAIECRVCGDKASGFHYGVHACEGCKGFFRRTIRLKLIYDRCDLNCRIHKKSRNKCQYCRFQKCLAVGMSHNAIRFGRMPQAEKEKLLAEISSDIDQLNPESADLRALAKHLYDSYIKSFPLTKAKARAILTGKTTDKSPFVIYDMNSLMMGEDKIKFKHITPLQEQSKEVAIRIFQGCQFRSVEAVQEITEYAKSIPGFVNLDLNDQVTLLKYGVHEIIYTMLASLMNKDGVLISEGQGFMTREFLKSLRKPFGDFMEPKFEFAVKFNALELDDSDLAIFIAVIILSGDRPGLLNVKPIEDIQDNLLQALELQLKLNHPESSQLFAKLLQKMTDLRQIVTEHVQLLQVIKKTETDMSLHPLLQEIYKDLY
The experiment can be described thus: Agonist activity at PPARgamma (unknown origin) incubated for 3 to 16 hrs by pathhunter nuclear hormone receptor assay relative to Troglitazone.

For experiment [8], the system named is Rattus norvegicus. The experiment can be described thus: Hepatoprotective activity in Sprague-Dawley rat assessed as reduction in ANIT-stimulated inflammatory score at 20 mg/kg, ig administered for 8 days by hematoxylin and eosin staining based mopho-metric analysis. The format is functional, organism-based.
Experiment [9] relates to Rattus norvegicus. The experiment can be described thus: Hepatoprotective activity in Sprague-Dawley rat assessed as reduction in ANIT-stimulated total bilirubin level at 20 mg/kg, ig administered for 8 days by biochemical analysis. The format is functional, organism-based.
Experiment [10] concerns Rattus norvegicus. The experiment can be described thus: Hepatoprotective activity in Sprague-Dawley rat assessed as reduction in ANIT-stimulated fibrosis area at 20 mg/kg, ig administered for 8 days by hematoxylin and eosin staining based mopho-metric analysis. The format is functional, organism-based.
In experiment [11] the target is T5, Peroxisome proliferator-activated receptor delta (Homo sapiens, UniProt Q03181).
T5 sequence (Q03181 whole entry): T3 sequence (whole entry)
The experiment can be described thus: Agonist activity at PPARbeta (unknown origin) incubated for 3 to 16 hrs by pathhunter nuclear hormone receptor assay.

The target of experiment [12] is T1, Peroxisome proliferator-activated receptor alpha (Homo sapiens). The experiment can be described thus: Potency index, ratio of EC50 of GFT505 to ratio of EC50 of compound for agonist activity at PPARalpha (unknown origin) incubated for 3 to 16 hrs by pathhunter nuclear hormone receptor assay.
Experiment [13] deals with T6, Peroxisome proliferator-activated receptor gamma (Homo sapiens, UniProt P37231).
T6 sequence (P37231 whole entry): T4 sequence (whole entry)
The experiment can be described thus: Agonist activity at PPARgamma (unknown origin) incubated for 3 to 16 hrs by pathhunter nuclear hormone receptor assay.

Experiment [14] addresses PPAR delta/gamma (Homo sapiens) (UniProt P37231+Q03181). The experiment can be described thus: Selectivity index, ratio of EC50 of PPARgamma (unknown origin) to EC50 of PPARdelta (unknown origin). The format is protein assay.
The species entered for experiment [15] is Homo sapiens. The experiment can be described thus: Selectivity index, ratio of EC50 of PPARgamma (unknown origin) to EC50 of PPARalpha (unknown origin).

This passage reports Activity, EC50 and Ratio EC50 results from ChEMBL document CHEMBL4304783, “Discovery of a Novel Selective Dual Peroxisome Proliferator-Activated Receptor α/δ Agonist for the Treatment of Primary Biliary Cirrhosis” (ACS Med Chem Lett, 2019).

Structures are written as SMILES. Activity calls are given as the source filed them. No cut-off for these calls is given here.

As a reminder, the EC50 is the concentration that produces a half-maximal response. With `CSc1ccc(C(=O)/C=C/c2cc(C)c(OC(C)(C)C(=O)O)c(C)c2)cc1` [ELAFIBRANOR], the result in experiment [1] was Active. Moreover, the Activity in experiment [2] is 117%; in [6], 72%; in experiment [7], 93%. The result in experiment [3] and in experiment [4] was inactive. Besides, the 50% effective concentration (EC50) in experiment [5] amounted to 225 nM.
Consider `CC[C@H]1[C@@H](O)[C@@H]2[C@H](CC[C@]3(C)[C@@H]([C@H](C)CCC(=O)O)CC[C@@H]23)[C@@]2(C)CC[C@@H](O)C[C@@H]12`, for which the result in [8] and in [10] was inactive. Besides, the result in experiment [9] was Active.
In experiment [2], `Cc1cc(Cc2cnoc2-c2ccc(Br)cc2)cc(C)c1OC(C)(C)C(=O)O` came in with an Activity of 78%. Also, the 50% effective concentration (EC50) in experiment [5] was found to be 2820 nM.
Take `CCCc1c(OCCCOc2ccc(OCC(=O)O)cc2)ccc(C(C)=O)c1O`: the EC50 in experiment [11] was 61 nM.
Turning to `Cc1cc(CCc2cc(-c3ccc(Br)cc3)on2)cc(C)c1OC(C)(C)C(=O)O`, the results for the Ratio EC50 in experiment [12], in [14] and in [15] were 8 to 28, 91 and 17, respectively. Also, the concentration for a half-maximal effect (EC50) in [13] came out at 457 nM; in experiment [11], 5 nM; in experiment [5] it was 27 nM. Also, the values for the Activity in [2], in [6] and in experiment [7] were 134%, 73% and 78%, respectively.
In experiment [2], `Cc1cc(Cc2cc(-c3ccccc3)on2)cc(C)c1OC(C)(C)C(=O)O` returned an Activity of 85%. The same molecule showed an EC50 in [5] of 385 nM.
On the same counts, the results for `Cc1cc(Cc2noc3c2CCOc2cc(Br)ccc2-3)cc(C)c1OC(C)(C)C(=O)O` are 50% and 8970 nM.
Molecule `Cc1cc(-c2cc(-c3ccc(Br)cc3)on2)cc(C)c1OC(C)(C)C(=O)O` showed an Activity in [2] of 5%. Moreover, the half-maximal effective concentration (EC50) in experiment [5] was greater than 10000 nM.
For `Cc1cc(Cc2onc3c2CCOc2cc(Br)ccc2-3)cc(C)c1OC(C)(C)C(=O)O`, in that order: 85% and 3420 nM.
